Columns and labels:
[1] = Inhibition of HMG-CoA synthase
[2] = Inhibition of rat liver microsomal squalene synthase
Rattus norvegicus [3] = test: Reduction in LDL cholesterol in rat plasma at 20 mg/kg, po qd for 7 days; type: functional; parameters: scale not given: the % may be the effect or the level left
Rattus norvegicus [4] = organism: Rattus norvegicus; test: Inhibition of [14C]cholesterol synthesis in rat liver after 1 hr; type: functional
[5] = Inhibition of ferrous/ascorbate induced lipid peroxidation of microsomal membrane lipids; type: functional
Rattus norvegicus [6] = organism: Rattus norvegicus; test: Inhibition of fatty acid synthesis in rat; type: functional
HepG2 [7] = test: Inhibition of fatty acid synthesis in human HepG2 cells; type: functional
HepG2 [8] = test: Inhibition of cholesterol synthesis in human HepG2 cells; type: functional
Rattus norvegicus [9] = organism: Rattus norvegicus; test: Inhibition of cholesterol synthesis in rat; type: functional
[10] = molecular target: T1, Pancreatic triacylglycerol lipase (Homo sapiens, UniProt P16233); test: Inhibition of pancreatic lipase
T1 sequence (P16233 whole entry): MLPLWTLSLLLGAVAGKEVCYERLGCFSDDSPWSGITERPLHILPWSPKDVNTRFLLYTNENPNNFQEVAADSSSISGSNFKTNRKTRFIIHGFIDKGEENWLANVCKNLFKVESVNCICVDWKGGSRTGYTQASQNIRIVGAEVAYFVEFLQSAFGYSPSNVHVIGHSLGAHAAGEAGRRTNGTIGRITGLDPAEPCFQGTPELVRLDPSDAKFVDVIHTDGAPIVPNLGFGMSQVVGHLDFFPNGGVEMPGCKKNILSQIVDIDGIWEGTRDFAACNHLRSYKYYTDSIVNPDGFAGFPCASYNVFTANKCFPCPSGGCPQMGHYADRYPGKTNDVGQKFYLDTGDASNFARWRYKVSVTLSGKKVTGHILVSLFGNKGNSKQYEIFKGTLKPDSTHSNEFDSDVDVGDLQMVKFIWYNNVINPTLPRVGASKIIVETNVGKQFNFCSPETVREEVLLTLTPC

Rhesus monkey = test: Decrease in nonHDL-C level in rhesus monkey plasma at 50 mg/kg, bid for 21 days; type: functional, Macaca mulatta; parameters: scale not given: the % may be the effect or the level left
Lanosterol synthase = molecular target: T2, Lanosterol synthase (Candida albicans (strain SC5314 / ATCC MYA-2876) (Yeast), UniProt Q04782)
T2 sequence (Q04782 whole entry): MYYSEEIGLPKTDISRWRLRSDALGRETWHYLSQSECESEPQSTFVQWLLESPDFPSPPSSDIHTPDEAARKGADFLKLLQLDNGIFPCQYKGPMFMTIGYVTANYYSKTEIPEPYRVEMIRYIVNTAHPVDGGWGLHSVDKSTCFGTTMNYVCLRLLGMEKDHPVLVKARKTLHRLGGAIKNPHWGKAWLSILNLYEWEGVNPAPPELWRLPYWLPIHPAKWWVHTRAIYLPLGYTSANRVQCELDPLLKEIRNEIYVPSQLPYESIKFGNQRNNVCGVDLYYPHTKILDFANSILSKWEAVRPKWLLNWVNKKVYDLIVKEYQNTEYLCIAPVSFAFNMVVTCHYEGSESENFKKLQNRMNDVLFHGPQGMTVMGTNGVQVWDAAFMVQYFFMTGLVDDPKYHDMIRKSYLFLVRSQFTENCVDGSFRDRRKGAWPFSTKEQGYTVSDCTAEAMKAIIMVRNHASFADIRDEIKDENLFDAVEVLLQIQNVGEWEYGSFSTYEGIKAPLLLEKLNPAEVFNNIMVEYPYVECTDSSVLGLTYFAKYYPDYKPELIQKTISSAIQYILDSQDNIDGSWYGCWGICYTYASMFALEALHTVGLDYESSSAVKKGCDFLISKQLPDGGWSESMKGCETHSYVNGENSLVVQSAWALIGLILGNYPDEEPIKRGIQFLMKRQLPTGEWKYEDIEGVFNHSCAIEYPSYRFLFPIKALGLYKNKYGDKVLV
Description: Inhibition of Candida albicans OSC

[11] = Inhibition of pig OSC; parameters: species or system Sus scrofa
Oryctolagus cuniculus = organism: Oryctolagus cuniculus; test: Decrease in aortic arch lesions in cholesterol fed rabbit; type: functional; parameters: scale not given: the % may be the effect or the level left
Rattus norvegicus [12] = organism: Rattus norvegicus; test: Reduction of cholesterol absorption in normal diet fed rat; type: functional
[13] = molecular target: T3, Lanosterol 14-alpha demethylase (Homo sapiens, UniProt Q16850); test: Inhibition of LDM in human HepG2 cells at 2 nM; type: cell-based
T3 sequence (Q16850 whole entry): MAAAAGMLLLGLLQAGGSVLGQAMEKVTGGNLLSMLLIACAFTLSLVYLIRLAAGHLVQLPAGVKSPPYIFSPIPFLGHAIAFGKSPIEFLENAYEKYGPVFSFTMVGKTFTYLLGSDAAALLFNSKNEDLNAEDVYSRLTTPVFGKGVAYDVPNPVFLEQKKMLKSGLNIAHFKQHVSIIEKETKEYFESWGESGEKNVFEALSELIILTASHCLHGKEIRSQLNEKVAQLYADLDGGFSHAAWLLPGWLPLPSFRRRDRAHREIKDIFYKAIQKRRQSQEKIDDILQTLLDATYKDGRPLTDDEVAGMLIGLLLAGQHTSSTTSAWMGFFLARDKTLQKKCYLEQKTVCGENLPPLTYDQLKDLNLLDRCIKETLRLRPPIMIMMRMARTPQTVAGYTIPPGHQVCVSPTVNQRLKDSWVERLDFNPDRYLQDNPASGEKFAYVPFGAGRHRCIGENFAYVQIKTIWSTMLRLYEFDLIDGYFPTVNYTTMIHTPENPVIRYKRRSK

[14] = molecular target: T4, 3-hydroxy-3-methylglutaryl-coenzyme A reductase (Homo sapiens) (UniProt P04035); test: Inhibition of HMG-CoA reductase relative to control; conditions: concentration not given here
T4 sequence (whole entry): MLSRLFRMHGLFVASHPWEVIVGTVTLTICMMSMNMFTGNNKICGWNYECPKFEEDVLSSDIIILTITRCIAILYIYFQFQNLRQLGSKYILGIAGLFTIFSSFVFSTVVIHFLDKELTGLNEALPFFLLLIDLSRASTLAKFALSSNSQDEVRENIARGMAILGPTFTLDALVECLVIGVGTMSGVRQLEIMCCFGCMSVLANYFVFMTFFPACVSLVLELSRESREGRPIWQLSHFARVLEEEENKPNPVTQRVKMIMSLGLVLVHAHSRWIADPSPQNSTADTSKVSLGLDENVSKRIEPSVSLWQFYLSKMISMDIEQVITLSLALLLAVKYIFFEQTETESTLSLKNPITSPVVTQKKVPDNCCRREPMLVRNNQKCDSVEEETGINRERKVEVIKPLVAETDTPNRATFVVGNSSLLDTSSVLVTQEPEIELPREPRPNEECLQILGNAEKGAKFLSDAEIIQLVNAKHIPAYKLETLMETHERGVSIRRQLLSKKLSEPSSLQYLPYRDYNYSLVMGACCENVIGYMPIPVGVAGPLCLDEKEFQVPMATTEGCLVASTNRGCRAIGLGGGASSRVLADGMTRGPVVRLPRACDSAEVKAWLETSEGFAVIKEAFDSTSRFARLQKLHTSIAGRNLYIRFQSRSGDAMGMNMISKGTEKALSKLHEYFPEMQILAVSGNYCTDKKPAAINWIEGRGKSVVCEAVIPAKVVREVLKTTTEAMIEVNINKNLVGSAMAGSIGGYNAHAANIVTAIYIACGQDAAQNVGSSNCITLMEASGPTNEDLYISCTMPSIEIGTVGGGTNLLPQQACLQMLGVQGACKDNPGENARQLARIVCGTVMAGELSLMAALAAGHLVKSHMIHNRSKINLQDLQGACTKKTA

Rattus norvegicus [15] = test: Inhibition of cholesterol biosynthesis in po dosed Sprague-Dawley rat; type: functional
[16] = molecular target: T5, Lanosterol 14-alpha demethylase (Rattus norvegicus, UniProt Q64654); test: Inhibition of rat liver LDM
T5 sequence (Q64654 whole entry): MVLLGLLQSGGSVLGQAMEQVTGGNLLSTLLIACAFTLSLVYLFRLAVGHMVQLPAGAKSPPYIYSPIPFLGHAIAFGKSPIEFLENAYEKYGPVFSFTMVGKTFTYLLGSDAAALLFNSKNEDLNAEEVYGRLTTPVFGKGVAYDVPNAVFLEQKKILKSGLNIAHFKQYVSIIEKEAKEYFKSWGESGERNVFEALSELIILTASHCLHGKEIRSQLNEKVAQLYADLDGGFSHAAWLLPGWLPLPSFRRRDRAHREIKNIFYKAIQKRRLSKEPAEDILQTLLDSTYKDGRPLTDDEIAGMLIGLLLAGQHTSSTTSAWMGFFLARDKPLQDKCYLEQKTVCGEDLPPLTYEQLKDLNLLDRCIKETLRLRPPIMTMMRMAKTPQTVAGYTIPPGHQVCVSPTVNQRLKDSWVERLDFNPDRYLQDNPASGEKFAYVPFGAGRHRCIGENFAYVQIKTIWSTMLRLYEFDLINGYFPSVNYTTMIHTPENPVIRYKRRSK

Compound CCOc1ccc(CC(=O)OC[C@@H]2[C@H](CC)C(=O)N2Cc2ccc(S(=O)(=O)O)cc2)cc1OCC has an IC50 [1] of 2 nM.

O[C@@]1(c2ccc(-c3ccc4ncccc4c3)cc2)CN2CCC1CC2 gave an IC50 [2] of 0.6 nM, an Activity (Rattus norvegicus [3]) of 43% and an ED50 (Rattus norvegicus [4]) of 5 mg/kg.

O[C@]1(c2ccc(-c3ccc4ncccc4c3)cc2)CN2CCC1CC2 showed an IC50 [2] of 0.6 nM, an Activity (Rattus norvegicus [3]) of 50% and an ED50 (Rattus norvegicus [4]) of 5 mg/kg.

CN1CC(O)(c2ccc(-c3ccccc3)cc2)OC2CCCCC21 (centres undefined) showed an IC50 [5] of 250000 nM.

For O=C(O)C[C@@]1(O)C[C@@H](CCCCCCc2ccc(Cl)cc2Cl)OC1=O, the Inhibition (Rattus norvegicus [6]) was 39%, the Inhibition (HepG2 [7]) was 82% and the Inhibition (HepG2 [8]) was 91%. The Inhibition (Rattus norvegicus [9]) was 76%.

With CC(C)c1cc2c(c(O)c1O)[C@@]1(C(=O)O)CCCC(C)(C)[C@@H]1CC2 [CARNOSIC ACID] the IC50 [10] was 36000 nM.

For F/C(COc1ccc2c(c1)[nH]c1ccccc12)=C1/CN2CCC1CC2, the ED50 (Rattus norvegicus [4]) was 32 mg/kg and the Activity (Rhesus monkey) was 37%.

In the case of CC(C)=CCCC(C)SCC/C(C)=C/CC/C=C(\C)CC/C=C(\C)CCC1OC1(C)C (centres undefined), the IC50 (Lanosterol synthase) is reported as 0.22 nM, the IC50 [11] is reported as 50 nM and the Ki [11] is reported as 500 nM.

C/C=C/CCCC/C=C/C(=O)NC(CC1(O)C(=O)C2OC2C2OC21)C(=O)OC (centres undefined) gave an IC50 [1] of 150 nM.

C/C=C/CCCC/C=C/C(=O)N[C@H](C[C@]1(O)C(=O)C2OC2C2OC21)C(=O)OC (some centres undefined) showed an IC50 [1] of 98 nM.

In the case of C/C=C/CCCC/C=C/C(=O)N[C@@H](C[C@@]1(O)C(=O)C2OC2C2OC21)C(=O)OC (some centres undefined), the IC50 [1] is reported as 31000 nM.

Work on CCC(CC)CC1(C(=O)Nc2ccccc2SC(=O)C(C)C)CCCCC1 [DALCETRAPIB] yielded an Activity (Oryctolagus cuniculus) of 70%.

For CC1CCN(C(=O)Oc2ccc(Oc3ccccc3)cc2)CC1, the ED50 (Rattus norvegicus [12]) was 10 mg/kg.

For CC(C)CCC[C@@H](C)[C@H]1C=C[C@@]2(CC(=O)O)C3=C(CC[C@]12C)[C@@]1(C)CC[C@H](O)C(C)(C)[C@@H]1CC3, the inhibition at 0.002 µM [13] was 50% and the inhibition [14] was 30%.

COc1ccccc1/C(C)=C/CN(C)CCCC(P(=O)(O)O)P(=O)(O)O showed an IC50 [2] of 3.6 nM.

COc1ccccc1/C(C)=C/CN(C)CCCC(P(=O)(O)OCOC(=O)C(C)(C)C)P(=O)(OCOC(=O)C(C)(C)C)OCOC(=O)C(C)(C)C (centres undefined) gave an ED50 (Rattus norvegicus [15]) of 1.6 mg/kg.

For CC(C)CCC[C@@H](C)[C@H]1C/C(=N\O)[C@@]2(C)[C@@H]3CC[C@@]4(C)C[C@@H](O)CC[C@]4(O)[C@H]3CC[C@]12C, the IC50 [16] was 55000 nM.

For CC(C)c1cc2c(c(O)c1O)[C@@]13CCCC(C)(C)[C@@H]1C[C@@H]2OC3=O [CARNOSOL], the IC50 [10] was 13000 nM.

Source: ChEMBL document CHEMBL1140634, “The biology and chemistry of hyperlipidemia” (Bioorg Med Chem, 2007)
